“And” between values parts separate entries of the source, which are not always exact repeats. Equal entries are not always repeated. Where two headings read alike, the source gives them in different places.
What was measured:
human ovarian cancer = settings: reported; read-out: IC50 of paclitaxel in human ovarian cancer; cited from earlier work
TOV-112D cells [1] = assay: Soft-agar colony formation, TOV-112D; type: cell-based, human
Protocol: (§1) ID8 and TOV Colony Formation in The Presence of Small Molecules and/or Chemotherapy: Bottom Layer Hard Agar: 2×DMEM and 0.8% agar stock was prepared and adjusted to 42° C. in a water bath for 30 min. The agar and 2×DMEM were mixed (1:2). 500 μL of the mixture was then added to each well of a 24 well plate, and the plate was rocked to distribute evenly and allowed to solidify at room temperature in a tissue culture hood. Upper Layer Soft Agar: 0.6% agar stock was prepared adjusted to 42° C. in a water bath for 30 min. During this time, ID8 cells were trypsinized, and 40,000 cells per mL suspension in 1×DMEM was made. Cell suspensions were then mixed with soft agar stock (1:2) and 500 μL of the mixture was then added to each well. Each condition was in triplicate.
[…] 100 μL of each drug was added to the relative wells in triplicate. Plates were then incubated in a humidified incubator with […] for 20-30 days. At the end of the experiment, each well was stained with 0.005% crystal violet in 15% ethanol (140 μL per well) and plates were incubated again for several hours then photos were taken using a microscope. ID8 Colonies equal or bigger […] and TOV colonies equal or bigger than […] were counted using Image J software.

TOV-112D cells [2] = test system: TOV-112D cells
Protocol: (§2) Sequential Delivery of Small Molecules and Chemotherapy: ID8 cells were exposed to AMD3100 in a 6 well plate (2.5×10^5 cells/well) for 72 hr. Cells were then washed and counted. Cell viability was checked by propidium iodide. For each condition, 500 cells per well of viable ID8 cells were then seeded into a 96 well black assay plate. ID8 cells were then incubated in DMEM containing a carrier, AMD3100 10 μM, TAXOL 0.005 μM, or both for another 72 hr. For TOV-112D cells, initial 72 hr incubation was with AMD3100 5 μM, followed by 96 hr incubation in media containing AMD3100 5 μM, TAXOL 1 nM, or both. At the conclusion of the experiment, plates were washed and dsDNA was measured via CyQuant assay.

ID8 cells [3] = test system: ID8 cells
Protocol: as §2

ID8 cells [4] = assay: Soft-agar colony formation, ID8; type: cell-based, murine
Protocol: as §1
Drug-DMEM stocks were made to achieve the proper concentrations in 1.1 mL, the total volume of each well: AMD3100 (10 μM and 1 μM for ID8 cells, 5 μM and 2.5 μM for TOV cells) and TAXOL (0.015 μM and 0.005 μM). 100 μL of each drug was added to the relative wells in triplicate. Plates were then incubated in a humidified incubator with […] for 20-30 days. At the end of the experiment, each well was stained with 0.005% crystal violet in 15% ethanol (140 μL per well) and plates were incubated again for several hours then photos were taken using a microscope. ID8 Colonies equal or bigger […] and TOV colonies equal or bigger than […] were counted using Image J software.

[5] = test system: ID8 murine ovarian cancer cells; assay: cells
Protocol: (§3) Drug Titrations: TAXOL was titered to determine the concentrations used in combination with AMD3100. Cells were cultured in 96-well black assay plates with optically clear bottoms (500 and 2500 cells per well were tested), including a standard curve plate. ID8 cells were then exposed to increasing concentrations of paclitaxel (1, 0.5, 0.15, 0.05, 0.015, and 0.005 μM), and TOV cells were exposed to 15, 5, and 1 nM Taxol for 48 or 96 hr. Proliferation was measured by measuring the amount of dsDNA using CyQuant reagent and read on a Perkin Elmer Envision 2103. AMD3100 (50, 25, 10, 5, 2.5, and 1 μM) was titered in the same manner. Each condition was done in triplicate. Drugs were not replenished during any of the experiments. Data was analyzed in Prism 7.
(§4) Simultaneous Delivery of Small Molecules and Chemotherapy: To determine the effect of AMD3100 alone or in combination with TAXOL, cell proliferation was measured by seeding 2500 TOV cells and 500 ID8 cell per well in a clear bottom 96-well black assay plates. AMD3100 (final concentrations: 10 μM for ID8 and 2.5 μM for TOV) and Paclitaxel (final concentrations: 15 and 5 nM for ID8 cells and 5 and 1 nM for TOV cells) were mixed with DMEM. 100 μL of the mixture was added to the cells. Each condition was done in triplicate. Plates were incubated at 37° C. with 5% CO2 for 72 hr (ID8) and 96 hr (TOV-112D). Standard curve plates were washed the same day the experiment was done. Plates were stored at −80° C. after washing and proliferation rate was measured then by CyQuant assay.

[6] = test system: TOV-112D human ovarian cancer cells; assay: cells
Protocol: as §3
as §4, with “Plates were incubated at 37° C. with 5% CO2 for 72 hr (ID8) and 96 hr (TOV-112D).” left out

ID8-Luc cells = settings: C57/B6 mice, 1 mg/kg IP every 72 hours (subtherapeutic)
Protocol: Six- to eight-week old C57/B6 mice were injected with 5e6 ID8-Luc cells. The presence of the tumor was confirmed by luciferase imaging. The tumor bearing mice were treated with 1 mg/kg AMD-3100 by intraperitoneal (IP) injection every 72 hours or with TAXOL® (10 mg/ml).
Six- to eight-week old C57/B16 mice were injected with 5e6 ID8-Luc cells. The presence of the tumor was confirmed by luciferase imaging. The tumor bearing mice were treated with 1 mg/kg AMD-3100 by IP injection every 72 hours. In the combination treatment, the AMD3100 (1 mg/kg) and ruxolitinib (30 mg/kg) were administered concurrently but not simultaneously (i.e., administration was staggered).

AE17 = assay: Survival in intraperitoneal malignant mesothelioma model, AE17; type: in vivo; settings: C57BL/6 mice, IP once a week for four weeks, AMD3100 1 mg/kg, VIC-008 20 μg per mouse
Protocol: (§5) Intraperitoneal malignant mesothelioma (MM) models were established in immunocompetent C57BL/6 mice using syngeneic 40L and AE17 cell lines. Here, we tested the effect of AMD3100 and VIC-008, alone or in combination, on mouse survival in the mesothelioma-bearing mice. […], alone, was administered at 20 μg per mouse intraperitoneally (IP) once a week for four successive weeks. AMD3100 was administered at 1 mg/kg of mouse body weight via IP injection once a week for four successive weeks.

40L = assay: Survival in intraperitoneal malignant mesothelioma model, 40L; type: in vivo; settings: 40L model, C57BL/6 mice; IP once a week for four weeks; AMD3100 1 mg/kg, VIC-008 20 μg per mouse
Protocol: as §5

CXCR7 [7] = target: CXCR7 (Homo sapiens, UniProt P25106); settings: TOV-112D cells
CXCR7 (Homo sapiens, UniProt P25106), sequence (P25106 whole entry): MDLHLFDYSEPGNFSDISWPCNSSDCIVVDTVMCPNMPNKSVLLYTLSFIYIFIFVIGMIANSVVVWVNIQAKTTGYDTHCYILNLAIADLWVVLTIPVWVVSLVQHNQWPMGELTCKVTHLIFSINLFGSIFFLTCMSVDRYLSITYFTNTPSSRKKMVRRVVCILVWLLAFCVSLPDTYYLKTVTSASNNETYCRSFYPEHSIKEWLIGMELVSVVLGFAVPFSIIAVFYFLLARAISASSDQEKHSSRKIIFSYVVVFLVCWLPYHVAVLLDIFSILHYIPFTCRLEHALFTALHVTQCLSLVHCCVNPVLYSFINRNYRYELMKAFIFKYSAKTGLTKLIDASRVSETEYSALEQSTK
Protocol: (§6) CXCR4, CXCR7, and CXCL12 expression in ovarian cancer cells: ID8 or TOV-112D cells were plated at 750,000 cells/well in 6-well plates. Conditions were WT, WT+AMD3100 (10 μM for ID8/5 μM for TOV-112D, MedChemExpress HY-50912 and AbCam ab1207180) 16 hrs, and WT+AMD3100 4 hrs. 2× drug stocks were made in complete DMEM, final volume per well was 2 mL. GolgiPlug (BD Pharmingen) was added to all wells 3 hrs prior to harvesting according to manufacturer's protocol. CXCL12, CXCR4, and CXCR7 expression was measured by Flow Cytometry. Antibodies: anti-h/mCXCL12/SDF-1 APC (IC350A, RandD Systems), anti-mCXCR4/CD184 PE (551966, BD Bioscience), anti-hCXCR4/CD184 PE (306506, BioLegend), anti-h/mCXCR7 PE-Cy7 (331115, BioLegend).
(§7) Flow Cytometry: Cells were harvested using enzyme free dissociation buffer (Thermo Fisher Scientific 13151014) and counted using Trypan Blue viability dye (Corning). Equal numbers of cells were labeled with antibody for surface markers. Thereafter cells were stained for viability and where needed with secondary antibody. […] All incubation steps were performed at 4° C. on a rocker in the dark. Cells were washed 2× before analysis in cell staining buffer consisting of PBS containing 0.5% BSA, 0.02% Sodium Azide, and 2 mM EDTA. Analysis of samples in duplicate was done with a BD Fortessa collecting a minimum of 10,000 events per sample and using FlowJo software.

CXCL12 = settings: for CXCL12 expression reduced by: 4 or 18 hours, normalized; for overall expression of CXCL12, significance of change: AMD3100 for either 4 or 18 hours
Protocol: as §6, §7

CXCR4 [8] = target: CXCR4 (Homo sapiens, UniProt P61073); settings: TOV-112D cells; for CXCR4 reduced by: AMD3100 5 μM, normalized
CXCR4 (Homo sapiens, UniProt P61073), sequence (P61073 whole entry): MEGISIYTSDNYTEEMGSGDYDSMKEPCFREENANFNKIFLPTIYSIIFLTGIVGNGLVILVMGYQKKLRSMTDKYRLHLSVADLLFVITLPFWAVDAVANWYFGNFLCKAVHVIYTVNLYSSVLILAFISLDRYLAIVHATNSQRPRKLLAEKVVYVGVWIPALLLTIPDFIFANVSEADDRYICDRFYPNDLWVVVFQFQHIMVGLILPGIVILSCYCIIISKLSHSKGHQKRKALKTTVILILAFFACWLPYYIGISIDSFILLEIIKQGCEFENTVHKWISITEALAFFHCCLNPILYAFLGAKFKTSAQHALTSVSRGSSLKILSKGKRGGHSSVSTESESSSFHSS
Protocol: as §6, §7

CXCR7 [9] = target: CXCR7 (Mus musculus, UniProt P56485); settings: ID8 cells
CXCR7 (Mus musculus, UniProt P56485), sequence (P56485 whole entry): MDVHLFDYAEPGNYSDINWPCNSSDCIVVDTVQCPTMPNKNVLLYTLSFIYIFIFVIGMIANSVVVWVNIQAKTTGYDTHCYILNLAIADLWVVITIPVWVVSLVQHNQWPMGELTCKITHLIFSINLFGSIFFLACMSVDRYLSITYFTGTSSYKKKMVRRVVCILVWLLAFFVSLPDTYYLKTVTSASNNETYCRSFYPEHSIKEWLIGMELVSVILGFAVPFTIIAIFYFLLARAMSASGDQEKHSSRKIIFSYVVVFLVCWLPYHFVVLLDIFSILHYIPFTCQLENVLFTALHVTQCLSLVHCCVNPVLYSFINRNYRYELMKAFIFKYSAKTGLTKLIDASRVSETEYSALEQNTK
Protocol: as §6, §7

CXCR4 [10] = target: CXCR4 (Mus musculus, UniProt P70658); settings: ID8 cells; for expression of CXCR4 reduced by: AMD3100 10 μM, normalized, negative control 0, untreated 100
CXCR4 (Mus musculus, UniProt P70658), sequence (P70658 whole entry): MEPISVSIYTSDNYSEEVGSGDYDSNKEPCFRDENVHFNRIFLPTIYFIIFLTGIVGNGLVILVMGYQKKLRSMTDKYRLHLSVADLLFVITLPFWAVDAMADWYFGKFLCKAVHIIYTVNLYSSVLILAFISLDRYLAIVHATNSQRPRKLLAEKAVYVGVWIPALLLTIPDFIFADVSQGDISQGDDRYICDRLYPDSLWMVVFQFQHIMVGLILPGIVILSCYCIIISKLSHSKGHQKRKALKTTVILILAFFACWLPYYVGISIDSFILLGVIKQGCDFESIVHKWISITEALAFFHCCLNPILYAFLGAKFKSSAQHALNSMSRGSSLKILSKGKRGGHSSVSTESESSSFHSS

[11] = AMD3100 for either 4 or 18 hours

CC(=O)O[C@H]1C(=O)[C@@]2(C)[C@H]([C@H](OC(=O)c3ccccc3)[C@]3(O)C[C@H](OC(=O)[C@H](O)[C@@H](NC(=O)c4ccccc4)c4ccccc4)C(C)=C1C3(C)C)[C@]1(OC(C)=O)CO[C@@H]1C[C@@H]2O [TAXOL, Paclitaxel]
IC50 (human ovarian cancer): ≤ 3000 nM
TOV-112D colony formation (TOV-112D cells [1]; TAXOL 5 nM): completely preventing
reduced colony formation by (TOV-112D cells [1]; TOV-112D, TAXOL 1 nM alone, non-significant): 20%
proliferation reduced by (TOV-112D cells [2]; control media, then TAXOL 1 nM 96 hr): 24%
cell proliferation reduced by (ID8 cells [3]; ID8, no AMD3100 pre-treatment, re-plated in TAXOL 0.005 μM 72 hr): 50%
reduced ID8 colony formation by (ID8 cells [4]; TAXOL 5 nM): 56% and 57%
reduced ID8 colony formation by (ID8 cells [4]; TAXOL 15 nM): 94%
IC50 ([5]; Mus musculus, ID8, 72 h, read-out: IC50, ID8 cell proliferation): 5 nM
inhibition at 0.005 µM ([5]; Mus musculus, ID8, read-out: proliferation inhibition): 50%
IC50 ([5]; Mus musculus, read-out: IC50, ID8 murine ovarian cancer cells): 5 nM
IC50 ([6]; Homo sapiens, TOV112D, read-out: IC50, human ovarian cancer cells (TOV)): 2.5 nM
inhibition at 0.005 µM ([6]; Homo sapiens, TOV112D, read-out: proliferation inhibition): 89%
TOV-112D cell proliferation inhibition ([6]; TAXOL 1 nM, after 72 hours): did not significantly inhibit

Plerixafor octahydrochioride [AMD3100]
survival of the tumor bearing mice (ID8-Luc cells): extends the survival
animal survival compared to saline control (AE17): modest benefit to survival
colony formation (TOV-112D cells [1]; TOV-112D, AMD3100 2.5 μM): did not reduce colony formation
animal survival compared to saline control (40L): modest benefit to survival
sensitization of cells by AMD3100 pre-treatment (TOV-112D cells [2]): did not significantly sensitize
proliferation reduced by (TOV-112D cells [2]; AMD3100 5 μM 72 hr, then re-plated in AMD3100 96 hrs): 79.5%
proliferation reduced by (TOV-112D cells [2]; AMD3100 5 μM 72 hr, then re-plated in control media 96 hrs): 49%
proliferation reduced by (TOV-112D cells [2]; control media, then AMD3100 5 μM 96 hr): 51%
sensitization of cells by AMD3100 pre-treatment (TOV-112D cells [2]; listed as AMD-3100): significantly sensitized
proliferated more than untreated cells (ID8 cells [3]; ID8, no pre-treatment, re-plated in AMD3100 10 μM media 72 hr, not significant): 22%
proliferation reduced by, vs untreated control cells (ID8 cells [3]; ID8, pre-treated with AMD3100 72 hr, reseeded in AMD3100 10 μM 72 hr): 48%
increased growth (ID8 cells [3]; ID8, treated with AMD3100 and then incubated without drug): 22%
sensitization of cells to subsequent TAXOL by AMD3100 pre-treatment (ID8 cells [3]; ID8, vs untreated control cells then incubated with TAXOL): did not significantly sensitize
decreased colony formation by (ID8 cells [4]; ID8, AMD3100 1 M (so in the source)): 16%
decreased colony formation by (ID8 cells [4]; ID8, AMD3100 10 M (so in the source)): 44%
CXCR7 expression (CXCR7 [7]; AMD3100 5 μM, 18 hours, normalized): returned to basal levels
CXCR7 expression increased by (CXCR7 [7]; AMD3100 5 μM, after 4 hours, normalized): 20%
surface expression of CXCR7, significance of change (CXCR7 [7]; [11]): did not significantly alter
CXCL12 expression reduced by (CXCL12; ID8 cells, AMD3100 10 μM): 9-10%
overall expression of CXCL12, significance of change (CXCL12; ID8 cells): did not significantly alter
CXCL12 expression reduced by (CXCL12; TOV-112D cells, AMD3100 5 μM): 5-7%
overall expression of CXCL12, significance of change (CXCL12; TOV-112D cells): did not significantly alter
CXCR4 reduced by (CXCR4 [8]; 4 hours): 13%
CXCR4 reduced by (CXCR4 [8]; 18 hours): 4%
surface expression of CXCR4, significance of change (CXCR4 [8]; [11]): did not significantly alter
CXCR7 expression increased by (CXCR7 [9]; AMD3100 10 μM, 4 or 18 hours, normalized): 6%-11
surface expression of CXCR7, significance of change (CXCR7 [9]; [11]): did not significantly alter
ID8 cell growth inhibition ([5]; AMD3100 10 μM alone, 72 hours): did not significantly inhibit
expression of CXCR4 reduced by (CXCR4 [10]; 4 hours): 24.5%
expression of CXCR4 reduced by (CXCR4 [10]; 18 hours): 23.5%
surface expression of CXCR4, significance of change (CXCR4 [10]; [11]): did not significantly alter
limited cell growth by ([6]; TOV-112D cells, AMD3100 2.5 μM alone): 24.5%
